Experimental data taken from patent US9777045B2, “Immunogenic compositions and methods” (Longhorn Vaccines and Diagnostics, LLC, priority 2007, dated 2017).
Where “and” joins values, the source holds several entries; their conditions need not be identical. Equal values may be shown once. Read-outs that look alike come from different tables or passages of the source.

Key:
[1] = tested on: peptide corresponding to the peptide-BSA conjugate used for injection; assay: ELISA for anti-peptide antibodies (individual mouse sera 1:100); format: in vivo, mice; conditions: for Average Absorbance Values of sera for tested peptides, Day 14 / Average Absorbance Values of sera for tested peptides, Day 29 / Average Absorbance Values of sera for tested peptides, Day 42 / Average Absorbance Values of sera for tested peptides, Pre: group average; for Average Absorbance Values of sera for tested peptides, Day 14 / Average Absorbance Values of sera for tested peptides, Day 29 / Average Absorbance Values of sera for tested peptides, Day 42 / Average Absorbance Values of sera for tested peptides, Pre / Individual absorbancy values of sera for tested peptides, Day 14 / Individual absorbancy values of sera for tested peptides, Day 29 / Individual absorbancy values of sera for tested peptides, Day 42: mice; for Average Absorbance Values of sera for tested peptides, Pre / Individual absorbancy values of sera for tested peptides, Pre: pre-bleed; for Individual absorbancy values of sera for tested peptides, Pre: mice injected with peptide-BSA conjugate, absorbance 450 nm; for Individual absorbancy values of sera for tested peptides, Pre / Individual absorbancy values of sera for tested peptides, Day 14 / Individual absorbancy values of sera for tested peptides, Day 29 / Individual absorbancy values of sera for tested peptides, Day 42: sera 1:100
Description: Individual sera were tested at a final dilution of 1:100 (in PBS-T) on Nunc Maxisorp® plates coated with the peptide corresponding to the peptide-BSA conjugate used for injection, at a concentration of 1 μg/ml in PBS (100 μl/well). One hundred microliters of diluted sera were reacted on the coated plate for 30 to 60 min at room temperature, and unbound material was removed by washing three times with PBS-T. Anti-peptide antibodies were detected with peroxidase-labeled goat anti-mouse IgG (γ-specific), diluted 1:10000 in PBS-T (100 μl/well; Jackson ImmunoResearch Laboratories, Inc., West Grove, Pa., USA). Following 30-min incubation, the wells were washed five times with PBS-T to removed unbound material and 100 μl of substrate (TMB; Kirkegaard & Perry Laboratories, Inc., Gaithersburg, Md., USA) was added to each well. The reaction was allowed to proceed for 15 min in the dark and stopped by addition of 100 μl of TMB Stop Solution per well (Kirkegaard & Perry). Absorbance was determined at 450 nm.

[2] = tested on: live Wuhan (Influenza A/Wuhan/359/95, H3N2); assay: ELISA for anti-Wuhan antibodies (mouse sera 1:100); format: in vivo, mice; conditions: for Absorbance values for individual sera tested on influenzavirus strain Wuhan, Pre: pre-bleed; for Anti-Wuhan Absorbance Day 42 (group average) / Anti-Wuhan Absorbance Pre-Bleed (group average): averaged results
[3] = tested on: IFN-γ induction in splenocytes; format: cell-based; conditions: mice immunized with peptide-BSA conjugates, 72 h in vitro treatment
[4] = tested on: Influenza H1N1, H3N2, and H5N1; conditions: in vivo
live H3N2 virus = format: in vivo, cotton rats (Sigmodon hispidus); conditions: cotton rats; 100 μg IM on day 0 and day 28, in CFA or in PBS; sera day 0, 28, 42
[5] = mice, 5 μg per injection, sera 1:100
[6] = mice, 20 μg per injection, sera 1:100
[7] = sera 1:100, dose per inject 5 μg
[8] = sera 1:100, dose per inject 20 μg
[9] = sera 1:100, dose per injection 5 μg
[10] = sera 1:100, dose per injection 20 μg

For DWSGYSGSFVQHPELTGL [Peptide 5912], the “Average Absorbance Values of sera for tested peptides, Day 14” value (from here on “Average Absorbance Values of sera … Day 14”) ([1]; 5 μg per injection) was 0.162, the “Average Absorbance Values of sera for tested peptides, Day 29” value (“Average Absorbance Values of sera … Day 29” for short) ([1]; 5 μg per injection) was 0.325 and the “Average Absorbance Values of sera for tested peptides, Day 42” value (“Average Absorbance Values of sera … Day 42” for short) ([1]; 5 μg per injection) was 0.693. For the same molecule, the “Average Absorbance Values of sera for tested peptides, Pre” value (“Average Absorbance Values of sera … Pre” for short) ([1]; 5 μg per injection) was 0.130, the “Average Absorbance Values of sera … Day 14” value ([1]; 20 μg per injection) was 0.130 and the “Average Absorbance Values of sera … Day 29” value ([1]; 20 μg per injection) was 0.123. For the same molecule, the “Average Absorbance Values of sera … Day 42” value ([1]; 20 μg per injection) was 0.155, the “Average Absorbance Values of sera … Pre” value ([1]; 20 μg per injection) was 0.100 and the “Individual absorbancy values of sera for tested peptides, Pre” value (from here on “Individual absorbancy values of sera … Pre”) ([1]; 5 μg per injection) was 0.090 and 0.094 and 0.107 and 0.156. For the same molecule, the “Individual absorbancy values of sera … Pre” value ([1]; 20 μg per injection) was 0.100 and 0.098 and 0.090 and 0.123, the “Individual absorbancy values of sera for tested peptides, Day 14” value (“Individual absorbancy values … Day 14” for short) ([1]; 5 μg per injection) was 0.287 and 0.109 and 0.230 and 0.147 and the “Individual absorbancy values of sera for tested peptides, Day 29” value (“Individual absorbancy values … Day 29” below) ([1]; 5 μg per injection) was 0.175 and 0.137 and 0.700 and 0.138. For the same molecule, the “Individual absorbancy values of sera for tested peptides, Day 42” value (shortened to “Individual absorbancy values … Day 42”) ([1]; 5 μg per injection) was 0.154 (2×) and 0.167 and 1.758, the “Individual absorbancy values … Day 14” value ([1]; 20 μg per injection) was 0.091 and 0.082 and 0.103 and 0.088 and the “Individual absorbancy values … Day 29” value ([1]; 20 μg per injection) was 0.098 and 0.146 and 0.099 and 0.096. For the same molecule, the “Individual absorbancy values … Day 42” value ([1]; 20 μg per injection) was 0.155 and 0.189 and 0.168 and 0.111, the “Absorbance values for individual sera tested on influenzavirus strain Wuhan, Pre” value [2, 5] was 0.063 and 0.060 and 0.062 and 0.083 and the “Absorbance values for individual sera tested on influenzavirus strain Wuhan, Pre” value [2, 6] was 0.077 and 0.084 and 0.057 and 0.086. For the same molecule, the “Anti-Wuhan Absorbance Day 42 (individual mice)” value [2, 7] was 0.086 and 0.100 and 0.527 and 0.090, the “Anti-Wuhan Absorbance Pre-Bleed (individual mice)” value [2, 7] was 0.063 and 0.060 and 0.062 and 0.083 and the “Anti-Wuhan Absorbance Day 42 (individual mice)” value [2, 8] was 0.132 and 0.431 and 0.093 and 0.068. The “Anti-Wuhan Absorbance Pre-Bleed (individual mice)” value [2, 8] was 0.077 and 0.084 and 0.057 and 0.086, the “Anti-Wuhan Absorbance Day 42 (group average)” value [2, 9] was 0.201 and the “Anti-Wuhan Absorbance Pre-Bleed (group average)” value [2, 9] was 0.067. For the same molecule, the “Anti-Wuhan Absorbance Day 42 (group average)” value [2, 10] was 0.181 and the “Anti-Wuhan Absorbance Pre-Bleed (group average)” value [2, 10] was 0.076.

For GNLFIAP [Peptide 5910], the “Average Absorbance Values of sera … Day 14” value ([1]; 5 μg per injection) was 0.113, the “Average Absorbance Values of sera … Day 29” value ([1]; 5 μg per injection) was 0.140 and the “Average Absorbance Values of sera … Day 42” value ([1]; 5 μg per injection) was 0.318. The “Average Absorbance Values of sera … Pre” value ([1]; 5 μg per injection) was 0.154, the “Average Absorbance Values of sera … Day 14” value ([1]; 20 μg per injection) was 0.102 and the “Average Absorbance Values of sera … Day 29” value ([1]; 20 μg per injection) was 0.202. The “Average Absorbance Values of sera … Day 42” value ([1]; 20 μg per injection) was 0.237, the “Average Absorbance Values of sera … Pre” value ([1]; 20 μg per injection) was 0.083 and the “Individual absorbancy values of sera … Pre” value ([1]; 5 μg per injection) was 0.100 and 0.110 and 0.097 and 0.308. The “Individual absorbancy values of sera … Pre” value ([1]; 20 μg per injection) was 0.081 and 0.083 (2×) and 0.087, the “Individual absorbancy values … Day 14” value ([1]; 5 μg per injection) was 0.089 and 0.090 and 0.086 and 0.186 and the “Individual absorbancy values … Day 29” value ([1]; 5 μg per injection) was 0.099 and 0.226 and 0.085 and 0.149. For the same molecule, the “Individual absorbancy values … Day 42” value ([1]; 5 μg per injection) was 0.123 and 0.306 and 0.680 and 0.162, the “Individual absorbancy values … Day 14” value ([1]; 20 μg per injection) was 0.104 and 0.081 and 0.078 and 0.144 and the “Individual absorbancy values … Day 29” value ([1]; 20 μg per injection) was 0.296 and 0.077 and 0.133 and 0.302. For the same molecule, the “Individual absorbancy values … Day 42” value ([1]; 20 μg per injection) was 0.279 and 0.164 and 0.175 and 0.333, the “Absorbance values for individual sera tested on influenzavirus strain Wuhan, Pre” value [2, 5] was 0.076 and 0.092 and 0.068 and 0.109 and the “Absorbance values for individual sera tested on influenzavirus strain Wuhan, Pre” value [2, 6] was 0.069 and 0.070 and 0.071 and 0.092. The “antibody responses that bound to native influenza (whole H3 virus), day 42 vs before” value ([2]; mice, conjugates at 5-μg and 20-μg doses) was “good antibody responses”, the “Anti-Wuhan Absorbance Day 42 (individual mice)” value [2, 7] was 0.449 and 0.341 and 0.288 and 0.088 and the “Anti-Wuhan Absorbance Pre-Bleed (individual mice)” value [2, 7] was 0.076 and 0.092 and 0.068 and 0.109. The “Anti-Wuhan Absorbance Day 42 (individual mice)” value [2, 8] was 0.546 and 0.096 and 0.271 and 0.385, the “Anti-Wuhan Absorbance Pre-Bleed (individual mice)” value [2, 8] was 0.069 and 0.070 and 0.071 and 0.092 and the “Anti-Wuhan Absorbance Day 42 (group average)” value [2, 9] was 0.291. The “Anti-Wuhan Absorbance Pre-Bleed (group average)” value [2, 9] was 0.086, the “Anti-Wuhan Absorbance Day 42 (group average)” value [2, 10] was 0.324 and the “Anti-Wuhan Absorbance Pre-Bleed (group average)” value [2, 10] was 0.075. The “IFN-γ response of spleen cell supernatants (in words)” value [3] was “strongest IFN-γ response” and the “IFN-γ response of spleen cell supernatants (in words)” value ([3]; listed as GNLFIAP) was “good IFN-γ response”.

In the case of “HYEECSCYDWSGYSGSFVQHPELTGLHYEECSCYQYIKANSKFIGITE [Peptide 5908]”, the “immune response against Influenza H1N1, H3N2, and H5N1” value [4] is reported as “raised an immune response”.

In the case of KSCINRCFYVELIRGR [Peptide 5914], the “Average Absorbance Values of sera … Day 14” value ([1]; 5 μg per injection) is reported as 0.128, the “Average Absorbance Values of sera … Day 29” value ([1]; 5 μg per injection) is reported as 0.181 and the “Average Absorbance Values of sera … Day 42” value ([1]; 5 μg per injection) is reported as 0.284. For the same molecule, the “Average Absorbance Values of sera … Pre” value ([1]; 5 μg per injection) was 0.126, the “Average Absorbance Values of sera … Day 14” value ([1]; 20 μg per injection) was 0.174 and the “Average Absorbance Values of sera … Day 29” value ([1]; 20 μg per injection) was 0.171. For the same molecule, the “Average Absorbance Values of sera … Day 42” value ([1]; 20 μg per injection) was 0.411, the “Average Absorbance Values of sera … Pre” value ([1]; 20 μg per injection) was 0.146 and the “Individual absorbancy values of sera … Pre” value ([1]; 5 μg per injection) was 0.110 and 0.133 and 0.136 and 0.126. The “Individual absorbancy values of sera … Pre” value ([1]; 20 μg per injection) was 0.165 (2×) and 0.133 and 0.123, the “Individual absorbancy values … Day 14” value ([1]; 5 μg per injection) was 0.117 and 0.123 and 0.156 and 0.118 and the “Individual absorbancy values … Day 29” value ([1]; 5 μg per injection) was 0.248 and 0.136 and 0.219 and 0.121. The “Individual absorbancy values … Day 42” value ([1]; 5 μg per injection) was 0.388 and 0.264 and 0.357 and 0.127, the “Individual absorbancy values … Day 14” value ([1]; 20 μg per injection) was 0.213 and 0.150 and 0.153 and 0.180 and the “Individual absorbancy values … Day 29” value ([1]; 20 μg per injection) was 0.175 and 0.214 and 0.141 and 0.156. The “Individual absorbancy values … Day 42” value ([1]; 20 μg per injection) was 0.284 and 0.480 and 0.646 and 0.234, the “Absorbance values for individual sera tested on influenzavirus strain Wuhan, Day 42” value ([2]; mice, 5 μg per injection, day 42, sera 1:100) was 0.172 and the “Absorbance values for individual sera tested on influenzavirus strain Wuhan, Pre” value [2, 5] was 0.062 and 0.059 and 0.090 and 0.083. For the same molecule, the “Absorbance values for individual sera tested on influenzavirus strain Wuhan, Pre” value [2, 6] was 0.099 and 0.132 and 0.068 and 0.080, the “Anti-Wuhan Absorbance Day 42 (individual mice)” value [2, 7] was 0.176 and 0.329 and 0.239 and 0.096 and the “Anti-Wuhan Absorbance Pre-Bleed (individual mice)” value [2, 7] was 0.062 and 0.059 and 0.090 and 0.083. The “Anti-Wuhan Absorbance Day 42 (individual mice)” value [2, 8] was 0.156 and 0.408 and 0.296 and 0.182, the “Anti-Wuhan Absorbance Pre-Bleed (individual mice)” value [2, 8] was 0.099 and 0.132 and 0.068 and 0.080 and the “Anti-Wuhan Absorbance Day 42 (group average)” value [2, 9] was 0.210. The “Anti-Wuhan Absorbance Pre-Bleed (group average)” value [2, 9] was 0.073, the “Anti-Wuhan Absorbance Day 42 (group average)” value [2, 10] was 0.260 and the “Anti-Wuhan Absorbance Pre-Bleed (group average)” value [2, 10] was 0.094.

“MSLLTEVETPIRNEWGCRCNDSSD [Peptide M2e, reference compound]” was tested, and the “IgG titers to live H3N2 virus (ELISA)” value (live H3N2 virus) was “no particular advantage over small epitopic peptide fragments”.

B1: GNLFIAPGNLFIAPHYEECSCYHYEECSCYQYIKANSKFIGITEHYEECSCYTPIRNETPIRNE (peptide)
chain: GNLFIAPGNLFIAPHYEECSCYHYEECSCYQYIKANSKFIGITEHYEECSCYTPIRNETPIRNE
In the case of B1, the “immune response against Influenza H1N1, H3N2, and H5N1” value [4] is reported as “raised an immune response”.
